Laboratory results published in patent publication US7223733B2, “Modulation of TRIP-Br function and method of treating proliferative disorders” (National University of Singapore, priority 2004, dated 2007).
Where no end group is shown, it is not given here. [invdT] = inverted (3'-3') thymidine

Legend:
E2F-regulated genes = experiment: Semi-quantitative RT-PCR of E2F-regulated genes in U2OS cells; assay type: cell-based, human; details: 50 μM, 16 h
Protocol: Semi-quantitative RT-PCR. Total RNA was isolated from U2OS cells or U2OS-ER-E2F-1 cells (grown with or without 1.0 μM OHT and/or 10 μg/ml cycloheximide) using the TRIZOL® Reagent (Life Technologies). Total RNA (4 μg) was reverse transcribed using oligo-dT and M-MLV reverse transcriptase in a total reaction volume of 20 μl. Polymerase Chain Reactions (PCR) were carried out on 3 μl cDNA samples in the presence of […] deoxyribonucleotide triphosphates (dNTPs) and 40 μM of specific primer pairs in a total reaction volume of 50 μ. The cycling profile for PCR was as follow: 30 cycles of denaturation (94° C., 30 sec), annealing (51° C., 30 sec) and extension (72° C., 2 min), with a 2-minute initial denaturation step at 94° C. and a 10-minute terminal polishing step at 72° C. Sequences of gene-specific primers are available upon request. PCR amplification products were analyzed by agarose gel electrophoresis.
FIG. 3: Analysis of E2F-responsive transcription in U2OS cells in response to decoy peptide treatment. (A) β-galactosidase/Luciferase assay of U2OS cells co-transfected with 0.1 μg of pCMV/β-galactosidase and 7.5 μg of the indicated luciferase reporter plasmids. Promoter activity of vehicle-treated samples was normalized to 100% and the activities of the peptide-treated samples were expressed relative to the vehicle-treated control. Values represent the average +/− standard deviation of at least two independent experiments; (B) Semi-quantitative RT-PCR analysis on total RNA for dhfr, cyclin-E, cyclin A2, PCNA, DNA Pola and cdc2 expression in U2OS cells exposed for 16 h to either vehicle (0.5% DMSO) or 50 μM of the indicated decoy peptides. H-actin was included as an internal control.

CNE2 tumor = experiment: Chick embryo chorioallantoic membrane (CAM) tumor xenograft model; assay type: in vivo; details: 50 μM topically, daily; p<0.05
Excerpt: Cell lines. Human nasopharyngeal cancer cell line CNE2 and human melanoma cell line Mewo were used for tumor inoculation.
Chicken embryo CAM preparation. To apply cells onto the CAM of 10-day old chick embryos, a 2-cm diameter wide window was opened in the flat pole of the eggshell with an electric drill equipped with a 0.3-mm thick×22-mm diameter Carborundum disc. The shell window was removed with forceps. The inner shell membrane was carefully punctured with a fine sterile forcep and removed to expose the underlying CAM. A small portion of the CAM was then gently traumatized by laying a strip of lens tissue (1-cm wide) on the surface of the CAM and then removing it immediately.
Inoculation, closure & incubation. The inoculum (1×10^6 cells/egg for CNE2 cell line and 3×10^6 cells/egg for Mewo cell line in 50 μl of blank medium) was applied onto the small patch of traumatized CAM. Following inoculation, the window was covered with a 35 mm tissue culture dish and sealed with scotch tape. The embryos were returned to the incubator in an upright position and allowed to incubate for seven additional days, with daily monitoring.
Peptide treatment & assessment of growth inhibitory effects. The treatment was initiated two days after tumor inoculation.
The eggs were randomized into 4 treatment groups, with each group comprising at least 4 biological replicates. […]

WI-38 cells = experiment: BrdU incorporation, E2F1/DP1 and cyclin E/Cdk2-induced S phase entry of quiescent WI-38 cells; assay type: cell-based, human; details: quiescent WI-38, 0.1 μM
Protocol: Cell proliferation assays. For the BrdU incorporation assays, growth-quiescent WI-38 cells in 96-well dishes were transfected with DNA enzyme and/or 100 ng of pCMV/E2F1, pCMV/DP1, pRSV/Cyclin E, or pCMV/Cdk2 and then exposed to Bromodeoxyuridine (BrdU, 100 μM) in the presence or absence of 10% FBS for 20 h. Bromodeoxyuridine (BrdU) incorporation was monitored with a calorimetric ELISA assay using a cell proliferation kit according to manufacturer's recommendations (Boehringer Mannheim). For manual cell count, growth-quiescent WI-38 cells in 24-well dishes were transfected with DNA enzyme and then exposed to 10% FBS for 72 h. The cells were rinsed with PBS, pH 7.4, and trypsinized, and 10 μl of cell suspension was taken from each sample and mixed with equal volume of trypan blue stain (Sigma, 0.4% w/v in 1×PBS). The number of unstained cells was enumerated manually using a hemocytometer. For colony formation assays, growth-quiescent WI-38 cells in 12-well dishes were transfected with DNA enzyme and then exposed to 10% FBS for 120 h. Cells were stained in situ with crystal violet (0.75% w/v hexamethyl-p-rosaniline chloride [SIGMA], 50% ethanol, 1.75% w/v paraformaldehyde, 0.25% w/v NaCl) for 10 min, and then rinsed thoroughly with deionized water to remove excess stains.
FIG. 13: (A) E-Br1 or E-Br2 suppresses serum-inducible S phase entry. […]

ERQIKIWFQNRRMKWKKGLDEDGLLLFCEGDTIAD (Peptide containing penetratin sequence from Drosophila and random peptide sequence) [*SCR, reference compound]
expression profile of the genes under investigation relative to vehicle (E2F-regulated genes; six E2F-regulated genes): negligible effects

ERQIKIWFQNRRMKWKKTGFLTDLTLDDILFADID (ERQIKIWFQNRRMKWKKTGFLTDLTLDDILFADID-NH2) [*Br2]
DNA Polα mRNA expression level (E2F-regulated genes): down-regulated | cdc2 mRNA transcript level (E2F-regulated genes): significant down regulation | dhfr mRNA expression level (E2F-regulated genes): down-regulated | transcriptional activity of PCNA gene (E2F-regulated genes): unaffected | transcriptional activity of cyclin A2 gene (E2F-regulated genes): unaffected | transcriptional activity of cyclin-E gene (E2F-regulated genes): unaffected | growth of CNE2 tumor (tumour weight) (CNE2 tumor): significantly inhibited the growth of CNE2 tumor

5′-T TACCCAACAGGCTAGCTACAACGAATATCACA-3′ (DNA TTACCCAACAGGCTAGCTACAACGAATATCACA; DNA, 3' [invdT], backbone not given here) [E-Br2]
S phase entry induced by co-expression of E2F1/DP1 and cyclin E/Cdk2 (WI-38 cells): does not influence

5′-T TGCTCAGCAGGCTAGCTACAACGACTTGCTCA-3′ (DNA TTGCTCAGCAGGCTAGCTACAACGACTTGCTCA; DNA, 3' [invdT], backbone not given here) [E-Br1]
S phase entry induced by co-expression of E2F1/DP1 and cyclin E/Cdk2 (WI-38 cells): does not influence

ERQIKIWFQNRRMKWKKATGCLLDDGLEGLFEDID (ERQIKIWFQNRRMKWKKATGCLLDDGLEGLFEDID-NH2) [*Br1]
cdc2 mRNA transcript level (E2F-regulated genes): significant down regulation | transcriptional activity of PCNA gene (E2F-regulated genes): unaffected | transcriptional activity of cyclin A2 gene (E2F-regulated genes): unaffected | transcriptional activity of cyclin-E gene (E2F-regulated genes): unaffected | growth of CNE2 tumor (tumour weight) (CNE2 tumor): significantly inhibited the growth of CNE2 tumor
